Data as given in US12391672B2, “Solid forms comprising (S)-4-(4-(4-(((2-(2,6-dioxopiperidin-3-yl)-1-oxoisoindolin-4-yl)oxy)methyl)benzyl)piperazin-1-yl)-3-fluorobenzonitrile and salts thereof, and compositions comprising and methods of using the same” (Celgene Corporation, priority 2019, dated 2025).
In brackets after ≈: the same amount, converted by molar mass. Several values for one entry are separate records, joined by “and”; a condition that tells them apart may be missing. Equal values may be shown once. Blank lines part the entries; values can stand above or below the compound they belong to.

Assays:
[1] = tested on: non-selective α1 adrenergic receptor; experiment: α1 adrenergic receptor binding at 10 μM ([3H]prazosin); conditions: 0.25 nM [3H]prazosin, rat cerebral cortex membranes
Description: (§1) α1 Adrenergic and Dopamine D2 Receptors. Methods: Binding and functional assays for α1 adrenergic and dopamine D2 receptors were performed by Eurofins Cerep according to their methods.
α1 Adrenergic Receptor. Binding at 10 μM. The binding assay evaluated the affinity of test article for the non-selective α1 adrenergic receptor in rat cerebral cortex. Membrane homogenates of cerebral cortex were incubated in duplicate for 60 minutes at room temperature with 0.25 nM [^3H]prazosin in the absence or presence of test articles at 10 μM. After the incubation period, samples were filtered through glass fiber filters, the filters dried and then counted for radioactivity using a scintillation counter. Results are expressed as mean percent inhibition of control radioligand binding.

[2] = Solubility of polymorphic forms in physiologically relevant media and final pH; type: physicochemical
Text: Solubility data of the several polymorphic forms of Compound 1 in physiologically relevant media and the final pH of these solutions are summarized in the following tables.

[3] = Dynamic vapor sorption / hygroscopicity; type: physicochemical; conditions: for hygroscopicity: DVS, class by mass gain at 85% r.h.; for DVS mass increase: relative humidity from about 5% to about 95%
Description: Projekt Messtechnik (now ProUmid) SPS11-100n. The sample was placed on an aluminum holder on top of a microbalance and allowed to equilibrate at 50% r.h. before starting one of the following pre-defined humidity programs (1 cycle): • hold 2 h at 50% r.h., • decrease humidity −5% r.h. h^−1 for 10 h (i.e., from 50% r.h. to 0% r.h.), • hold 5 h at […]., • increase humidity +5% r.h. h^−1 for 19 h (i.e., from 0% r.h. to 95% r.h.), • hold 5 h at 95% r.h., • decrease humidity −5% r.h. h^−1 for 9 h (i.e., from 95% r.h. to 50% r.h.), • hold 2 h at 50% r.h. or • hold 2 h at 50% r.h., • increase humidity +5% r.h. h^−1 for 9 h (i.e., from 50% r.h. to 95% r.h.), • hold 5 h at 95% r.h., • decrease humidity −5% r.h. h^−1 for 19 h (i.e., from 95% r.h. to 0% r.h.), • hold 5 h at 0% r.h., • increase humidity +5% r.h. h^−1 for 10 h (i.e., from 0% r.h. to 50% r.h.), • hold 2 h at 50% r.h.
The hygroscopicity was classified based on the mass gain at 85% r.h. relative to the initial mass as follows: deliquescent (sufficient water adsorbed to form a liquid), very hygroscopic (mass increase of […]), hygroscopic (mass increase of <15% but ≥2%), slightly hygroscopic (mass increase of <2% but ≥0.2%), or non-hygroscopic (mass increase of <0.2%).

[4] = Solid state stability under accelerated storage conditions; type: physicochemical; conditions: for Chiral purity after storage: initial value 97.96 area %; for area % chemical purity after storage: initially 98.4%
Description: Form A was not isolated directly as a wet cake but formed only upon drying of Form E in polymorphism studies. […] Small quantities of Form A were generated by dissolving a crude Compound 1 in MEK at high temperature, followed by fast cooling to room temperature, filtration and drying. DSC and TGA data were obtained for samples of Form A and following storage for 1 week at 60° C. and 60° C./75% RH. […] TGA analysis confirmed that this broad endotherm was most likely due to moisture uptake under the accelerated storage conditions. Most of the weight loss of 0.82% in this sample occurred in a single step at less than 75° C. By contrast, weigh loss was a two-step process at the initial time point. […] The residual solvent initially present in the sample was lost upon storage of the sample at 60° C. (0.13% weight loss between 25 to 150° C.).
Form B could be obtained from a process involving methyl acetate. […] HPLC traces were taken of the samples of Form B and following storage for 2 week at 60° C. and 60° C./75% RH. […] Several small degradation products were seen to grow especially in the sample stored at 60° C. Chiral instability was also observed in the sample stored at 60° C./75% RH.
Physical stability: Visually, all samples of Form K were white colored powder with no apparent change in color in the samples stored under accelerated conditions (40° C., 40° C./75% RH, 60° C., 60° C./75% RH and sample stored in light chamber in clear vials exposed to light and covered in aluminum foil) for 14 d relative to the sample stored refrigerated and under ambient conditions.
Solid state chemical stability: HPLC analysis were performed on Form K samples stored under the accelerated stability conditions. […] Based on the HPLC analysis data, there is a measurable but small change in the chemical stability of Form K under the accelerated conditions of temperature, humidity and exposure to light over the 14 d period.
Solid state chiral stability: Chiral stability of Form K samples stored under accelerated stability conditions was tested. There was ˜2.9% of the R-enantiomer (97.1 area % of the active S-isomer) in the initial sample. […]
The chiral purity (area % of S-isomer) remained […] under the accelerated stability conditions.

[5] = Mechanical stressing (grinding, compression); type: physicochemical; conditions: ground with a mortar and pestle for 2 min
Description: Mechanical stressing experiment: the following table describes three experiments involving mechanical stressing of Form A and/or Form B of free base Compound 1 by grinding with a mortar and pestle.
Shear Sensitivity: Form K was compressed under 2000 psi for 1 minute and analyzed by XRPD.

[6] = Competitive slurry and slurry stability experiments; type: physicochemical; conditions: aqueous slurry at room temperature, within 24 hr
Description: Form B was obtained at room temperature while form C was obtained at 45° C. in acetone alone.
The HBr salt was largely insoluble in various buffers when 1 mg/mL slurries were prepared and the mother liquor concentration determined (by HPLC): <0.05 mg/mL in all buffers tested.

dopamine D2S receptor = target: T1, dopamine D2S receptor (Homo sapiens, UniProt P14416); experiment: Dopamine D2S receptor binding at 10 μM; conditions: transfected HEK-293 cell membranes, read-out: Dopamine D2S % Inh. (@10 μM)
T1 construct: host or cells: HEK-293
Description: as §1
Dopamine D2 Receptor. Binding at 10 μM. The binding assay evaluated the affinity of test articles for the dopamine D2 receptor in transfected human embryonic kidney (HEK)-293 cells. For determining the binding in the D2S receptor assay, test article was incubated with 0.3 nM [^3H] methylspiperone or 1 nM [^3H] 7-hydroxy-2-N,N-dipropylaminotetralin (7-OH-DPAT). [^3H] Methylspiperone at 0.3 nM also was used as control ligand in the D2L binding assay. Cell membrane homogenates were incubated in duplicate at room temperature for 60 minutes with ligand in the absence or presence of test articles at 10 μM. After the incubation period, samples were filtered through glass fiber filters, the filters dried and then counted for radioactivity using a scintillation counter. Results are expressed as mean percent inhibition of control radioligand binding.

[7] = Thermal treatment / racemization on heating; type: physicochemical
Description: Thermal treatment of solid forms: the following table summarizes two experiments carried out using solvent-free thermal treatment of forms of Compound 1. The goal of these experiments was to determine whether the endotherm at 225° C. observed in many DSC experiments corresponded to the melting of the racemate of Compound 1 or whether it was a polymorphic form of Compound 1. Two experiments involved generation of different solid forms of Compound 1, the amorphous form and Form E. The resulting products were subsequently heated to temperatures where exothermic events had been observed in DSC thermograms. Both experiments confirmed that the racemate was generated by heating.
Racemization of Compound 1 during the DSC analysis was confirmed by heating the samples to various temperatures and analyzing these samples by a chiral HPLC method as well as by comparison of the melting point with a pure sample of the racemate of Compound 1. Upon heating the sample to 160° C., the chiral purity was essentially unchanged (96.1 area % at 160° C. vs. 97.1% initial). This supports the interpretation of the sharp endotherm seen in the DSC thermogram at about 152.6° C. as the melt of the enantiomer. Between 160-218° C. a gradual conversion of the enantiomer to the racemate occurs along with the recrystallization of the racemate. This explains the unsteady baseline over this temperature range and the small broad endotherm observed at about 197.1° C. […] This melting point matches the peak melting point (about 225.6° C.) of the pure racemate of Compound 1.

T1 sequence (P14416 1-414 isoform P14416-2): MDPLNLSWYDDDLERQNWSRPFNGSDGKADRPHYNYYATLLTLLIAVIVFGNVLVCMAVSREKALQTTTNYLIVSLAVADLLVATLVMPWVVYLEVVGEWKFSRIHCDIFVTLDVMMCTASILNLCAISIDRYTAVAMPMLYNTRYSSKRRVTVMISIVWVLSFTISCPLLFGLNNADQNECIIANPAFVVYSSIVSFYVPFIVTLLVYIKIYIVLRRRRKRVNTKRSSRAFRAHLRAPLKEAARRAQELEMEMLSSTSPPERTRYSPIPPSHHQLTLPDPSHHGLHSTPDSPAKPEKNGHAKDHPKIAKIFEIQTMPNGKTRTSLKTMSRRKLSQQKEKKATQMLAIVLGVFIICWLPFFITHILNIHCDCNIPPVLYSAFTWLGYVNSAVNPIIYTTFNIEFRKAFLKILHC

Adrenergic α1 % Inh. (@10 μM) [1]: 102%
SMILES: O=C1CCC(N2Cc3c(OCc4ccc(CN5CCN(c6ccc(F)cc6F)CC5)cc4)cccc3C2=O)C(=O)N1 (racemic) [Compound A, 3-(4-((4-((4-(2,4-difluorophenyl)piperazin-1-yl)methyl)benzyl)oxy)-1-oxoisoindolin-2-yl)piperidine-2,6-dione, reference compound]

SMILES: N#Cc1ccc(N2CCN(Cc3ccc(COc4cccc5c4CN([C@H]4CCC(=O)NC4=O)C5=O)cc3)CC2)c(F)c1 [Form A of a free base of Compound 1]
Solubility ([2]; FeSSiF, listed as Form A): 86 µg/mL (≈ 152 µM) | Solubility ([2]; SGF with pepsin, listed as Form A): 429 µg/mL (≈ 756 µM) | Solubility ([2]; pH 1 buffer HC1/NaC1, listed as Form A): 88 µg/mL (≈ 155 µM) | Solubility ([2]; pH 3 buffer (phosphate), listed as Form A): 280 µg/mL (≈ 493 µM) | Solubility ([2]; pH 4 buffer (acetate), listed as Form A): 159 µg/mL (≈ 280 µM) | Solubility ([2]; pH 5 buffer (acetate), listed as Form A): 8 µg/mL (≈ 14.1 µM) | Final pH ([2]; solubility sample in FaSSIF, listed as Form A): 6.44 | Final pH ([2]; solubility sample in FeSSiF, listed as Form A): 5.05 | Final pH ([2]; solubility sample in SGF with pepsin, listed as Form A): 1.34 | Final pH ([2]; solubility sample in Water, listed as Form A): 6.77 | Final pH ([2]; solubility sample in pH 1 buffer HC1/NaC1, listed as Form A): 1.14 | Final pH ([2]; solubility sample in pH 3 buffer (phosphate), listed as Form A): 3.70 | Final pH ([2]; solubility sample in pH 4 buffer (acetate), listed as Form A): 4.11 | Final pH ([2]; solubility sample in pH 5 buffer (acetate), listed as Form A): 5.03 | hygroscopicity ([3]; listed as Form A): slightly hygroscopic (slightly hygroscopic (mass increase of <2% but ≥0.2%)) | DVS mass increase ([3]; listed as Form A): about 2.4% | DSC trace after storage ([4]; 1 week at 60° C.): quite similar to the initial condition | physical form after storage (DSC, TGA) ([4]; 1 week at 60° C./75% RH): changes in physical form were observed | PXRD result after mechanical treatment ([5]; listed as Form A): no change in polymorphic form;

SMILES: N#Cc1ccc(N2CCN(Cc3ccc(COc4cccc5c4CN([C@H]4CCC(=O)NC4=O)C5=O)cc3)CC2)c(F)c1 [Form B of a free base of Compound 1]
Solubility ([2]; FeSSiF, listed as Form B): 77 µg/mL (≈ 136 µM) | Solubility ([2]; SGF with pepsin, listed as Form B): 406 µg/mL (≈ 715 µM) | Solubility ([2]; pH 1 buffer HC1/NaC1, listed as Form B): 85 µg/mL (≈ 150 µM) | Solubility ([2]; pH 3 buffer (phosphate), listed as Form B): 125 µg/mL (≈ 220 µM) | Solubility ([2]; pH 4 buffer (acetate), listed as Form B): 115 µg/mL (≈ 203 µM) | Solubility ([2]; pH 5 buffer (acetate), listed as Form B): 7 µg/mL (≈ 12.3 µM) | Final pH ([2]; solubility sample in FaSSIF, listed as Form B): 6.43 | Final pH ([2]; solubility sample in FeSSiF, listed as Form B): 5.03 | Final pH ([2]; solubility sample in SGF with pepsin, listed as Form B): 1.29 | Final pH ([2]; solubility sample in Water, listed as Form B): 6.46 | Final pH ([2]; solubility sample in pH 1 buffer HC1/NaC1, listed as Form B): 1.09 | Final pH ([2]; solubility sample in pH 3 buffer (phosphate), listed as Form B): 4.05 | Final pH ([2]; solubility sample in pH 4 buffer (acetate), listed as Form B): 4.11 | Final pH ([2]; solubility sample in pH 5 buffer (acetate), listed as Form B): 5.05 | hygroscopicity ([3]; listed as Form B): slightly hygroscopic (slightly hygroscopic (mass increase of <2% but ≥0.2%)) | DVS mass increase ([3]; listed as Form B): about 3.1% | Chiral purity after storage ([4]; 2 week at 60° C./75% RH): 96.54 area % | area % chemical purity after storage ([4]; 2 week at 60° C./75% RH): 97.92% | Chiral purity after storage ([4]; 2 week at 60° C.): remained unchanged | area % chemical purity after storage ([4]; 2 week at 60° C.): 97.71% | colour after storage ([4]; stored at 60° C., initially white to light brown): Color change was observed | PXRD result after mechanical treatment ([5]; listed as Form B): no change in polymorphic form | competitive slurry with Form C [6]: rapidly converted to Form C

SMILES: N#Cc1ccc(N2CCN(Cc3ccc(COc4cccc5c4CN([C@H]4CCC(=O)NC4=O)C5=O)cc3)CC2)c(F)c1 [Compound 1, (S)-4-(4-(4-(((2-(2,6-dioxopiperidin-3-yl)-1-oxoisoindolin-4-yl)oxy)methyl)benzyl)piperazin-1-yl)-3-fluorobenzonitrile]
Adrenergic α1 % Inh. (@10 μM) [1]: 67% and 62% | inhibition at 10 µM (dopamine D2S receptor): 55% | racemization on heating ([7]; DSC heating, chiral HPLC, gradual between 160-218° C.): almost complete by 218 °C | chiral purity upon heating ([7]; heated to 160° C., 97.1% initial): 96.1 area %

SMILES: N#Cc1ccc(N2CCN(Cc3ccc(COc4cccc5c4CN([C@H]4CCC(=O)NC4=O)C5=O)cc3)CC2)c(F)c1 [Form E of a free base of Compound 1]
solid form after DVS cycle ([3]; after the DVS humidity cycle, listed as Form E): primarily amorphous material | PXRD result after thermal treatment ([7]; N2 flow, 200° C. held for several minutes, cooled quickly): racemate
